Data on 14 compounds can be found in patent US10370412B2, “Beta-hairpin peptidomimetics” (Polyphor AG, priority 2013, dated 2019).

In the data set the test system is human red blood cells (hRBC). Format: cell-based. The settings on record: red cells of human, 1 h. On the procedure:
The peptides were tested for their hemolytic activity against human red blood cells (hRBC). Fresh hRBC were washed three times with phosphate buffered saline (PBS) and centrifuged for 10 min at 2000×g. Compounds (100 μg/ml) were incubated with 20% hRBC (v/v) for 1 h at 37° C. and shaking at 300 rpm. The final erythrocyte concentration was approximately 0.9×10^9 cells/ml. A value of 0% and 100% cell lyses, respectively, was determined by incubation of hRBC in the presence of PBS containing 0.001% acetic acid and 2.5% Triton X-100 in H2O, respectively. The samples were centrifuged, the supernatants were 8-fold diluted in PBS buffer and the optical densities (OD) were measured at 540 nm. The 100% lyses value (OD540H2O) gave an OD540 of approximately 0.5-1.0. Percent hemolysis was calculated as follows: (OD540peptide/OD540H2O)×100%.

Where a SMILES comes first, the peptide text is derived from it. [ ]: non-standard residue; d: D form. Cha = N[C@@H](CC1CCCCC1)C(=O)O; Chg = N[C@H](C(=O)O)C1CCCCC1; Tle = CC(C)(C)[C@H](N)C(=O)O; dDab = NCC[C@@H](N)C(=O)O; Orn = NCCC[C@H](N)C(=O)O; Dab = NCC[C@H](N)C(=O)O

For the compound `C[C@@H]1NC(=O)[C@H](CC2CCCCC2)NC(=O)[C@H](CCN)NC(=O)[C@H](Cc2c[nH]c3ccccc23)NC(=O)[C@H](CCN)NC(=O)[C@@H](CCN)NC(=O)[C@H](CCCN)NC(=O)[C@H](CCN)NC(=O)[C@H](C(C)(C)C)NC(=O)[C@H](Cc2c[nH]c3ccccc23)NC(=O)[C@H](Cc2c[nH]c3ccccc23)NC(=O)[C@@H]2CCCN2C(=O)[C@H]2CCCN2C(=O)[C@H](CO)NC1=O` [compound 12, cyclo(-Trp-Trp-tBuGly-Dab-Orn-^DDab-Dab-Trp-Dab-Cha-Ala-Ser-^DPro-Pro-)] (cyclo(WW[Tle][Dab][Orn][dDab][Dab]W[Dab][Cha]AS[dP]P)), the “Hemolysis at 100 μg/ml” value came to 3%.

As to `CC(C)C[C@@H]1NC(=O)[C@H](Cc2c[nH]c3ccccc23)NC(=O)[C@H](Cc2c[nH]c3ccccc23)NC(=O)[C@@H]2CCCN2C(=O)[C@H]2CCCN2C(=O)[C@H](C(C)C)NC(=O)[C@H](C)NC(=O)[C@H](C(C)C)NC(=O)[C@H](CCN)NC(=O)[C@H](Cc2c[nH]c3ccccc23)NC(=O)[C@H](CCN)NC(=O)[C@@H](CCN)NC(=O)[C@H](CCCN)NC(=O)[C@H](CCN)NC1=O` [compound 13, cyclo(-Trp-Trp-Leu-Dab-Orn-^DDab-Dab-Trp-Dab-Val-Ala-Val-^DPro-Pro-)] (cyclo(WWL[Dab][Orn][dDab][Dab]W[Dab]VAV[dP]P)), the “Hemolysis at 100 μg/ml” value is reported as 2%.

`C[C@@H]1NC(=O)[C@H](C(C)(C)C)NC(=O)[C@H](CCN)NC(=O)[C@H](Cc2c[nH]c3ccccc23)NC(=O)[C@H](CCN)NC(=O)[C@H](CCN)NC(=O)[C@H](CCCN)NC(=O)[C@H](CCN)NC(=O)[C@H](Cc2ccc(O)cc2)NC(=O)[C@H](Cc2c[nH]cn2)NC(=O)[C@H](Cc2c[nH]c3ccccc23)NC(=O)[C@@H]2CCCN2C(=O)[C@H]2CCCN2C(=O)[C@H](CO)NC1=O` [compound 18, cyclo(-Trp-His-Tyr-Dab-Orn-Dab-Dab-Trp-Dab-tBuGly-Ala-Ser-^DPro-Pro-)] (cyclo(WHY[Dab][Orn][Dab][Dab]W[Dab][Tle]AS[dP]P)): the “Hemolysis at 100 μg/ml” value stood at 0%.

Turning to `C[C@@H]1NC(=O)[C@H](C(C)(C)C)NC(=O)[C@H](CCN)NC(=O)[C@H](Cc2c[nH]c3ccccc23)NC(=O)[C@H](CCN)NC(=O)[C@H](CCN)NC(=O)[C@H](CCCN)NC(=O)[C@H](CCN)NC(=O)[C@H](CC2CCCCC2)NC(=O)[C@H](Cc2c[nH]cn2)NC(=O)[C@H](Cc2c[nH]c3ccccc23)NC(=O)[C@@H]2CCCN2C(=O)[C@H]2CCCN2C(=O)[C@H](CO)NC1=O` [compound 19, cyclo(-Trp-His-Cha-Dab-Orn-Dab-Dab-Trp-Dab-tBuGly-Ala-Ser-^DPro-Pro-)] (cyclo(WH[Cha][Dab][Orn][Dab][Dab]W[Dab][Tle]AS[dP]P)), the “Hemolysis at 100 μg/ml” value is 0%.

Consider `CC[C@H](C)[C@@H]1NC(=O)[C@@H]2CCCN2C(=O)[C@H]2CCCN2C(=O)[C@H](CO)NC(=O)[C@H](C)NC(=O)[C@H](C(C)(C)C)NC(=O)[C@H](CCN)NC(=O)[C@H](Cc2c[nH]c3ccccc23)NC(=O)[C@H](CCN)NC(=O)[C@@H](CCN)NC(=O)[C@H](CCCN)NC(=O)[C@H](CCN)NC(=O)[C@H](Cc2ccc(O)cc2)NC(=O)[C@H](Cc2c[nH]cn2)NC1=O` [compound 20, cyclo(-Ile-His-Tyr-Dab-Orn-^DDab-Dab-Trp-Dab-tBuGly-Ala-Ser-^DPro-Pro-)] (cyclo(IHY[Dab][Orn][dDab][Dab]W[Dab][Tle]AS[dP]P)), for which the “Hemolysis at 100 μg/ml” value was determined as 0%.

For `CC[C@H](C)[C@@H]1NC(=O)[C@H](CCN)NC(=O)[C@H](Cc2c[nH]c3ccccc23)NC(=O)[C@H](CCN)NC(=O)[C@@H](CCN)NC(=O)[C@H](CCCN)NC(=O)[C@H](CCN)NC(=O)[C@H](Cc2ccc(O)cc2)NC(=O)[C@H](Cc2c[nH]cn2)NC(=O)[C@H]([C@@H](C)CC)NC(=O)[C@@H]2CCCN2C(=O)[C@H]2CCCN2C(=O)[C@H](CO)NC(=O)[C@H](C)NC1=O` [compound 21, cyclo(-Ile-His-Tyr-Dab-Orn-^DDab-Dab-Trp-Dab-Ile-Ala-Ser-^DPro-Pro-)] (cyclo(IHY[Dab][Orn][dDab][Dab]W[Dab]IAS[dP]P)), the “Hemolysis at 100 μg/ml” value stood at 1%.

Regarding `CC(C)C[C@@H]1NC(=O)[C@@H]2CCCN2C(=O)[C@H]2CCCN2C(=O)[C@H](CO)NC(=O)[C@H](C)NC(=O)[C@H](C2CCCCC2)NC(=O)[C@H](CCN)NC(=O)[C@H](Cc2c[nH]c3ccccc23)NC(=O)[C@H](CCN)NC(=O)[C@H](CCN)NC(=O)[C@H](CCCN)NC(=O)[C@H](CCN)NC(=O)[C@H](Cc2ccc(O)cc2)NC(=O)[C@H](Cc2c[nH]cn2)NC1=O` [compound 22, cyclo(-Leu-His-Tyr-Dab-Orn-Dab-Dab-Trp-Dab-Chg-Ala-Ser-^DPro-Pro-)] (cyclo(LHY[Dab][Orn][Dab][Dab]W[Dab][Chg]AS[dP]P)), the “Hemolysis at 100 μg/ml” value is given as 0%.

Consider `CC(C)C[C@@H]1NC(=O)[C@@H]2CCCN2C(=O)[C@H]2CCCN2C(=O)[C@H](CO)NC(=O)[C@H](C)NC(=O)[C@H](C2CCCCC2)NC(=O)[C@H](CCN)NC(=O)[C@H](Cc2c[nH]c3ccccc23)NC(=O)[C@H](CCN)NC(=O)[C@@H](CCN)NC(=O)[C@H](CCCN)NC(=O)[C@H](CCN)NC(=O)[C@H](Cc2ccc(O)cc2)NC(=O)[C@H](Cc2c[nH]cn2)NC1=O` [compound 23, cyclo(-Leu-His-Tyr-Dab-Orn-^DDab-Dab-Trp-Dab-Chg-Ala-Ser-^DPro-Pro-)] (cyclo(LHY[Dab][Orn][dDab][Dab]W[Dab][Chg]AS[dP]P)), for which the “Hemolysis at 100 μg/ml” value turned out to be 3%.

`CC(C)C[C@@H]1NC(=O)[C@@H]2CCCN2C(=O)[C@H]2CCCN2C(=O)[C@H](CO)NC(=O)[C@H](C)NC(=O)[C@H](C(C)(C)C)NC(=O)[C@H](CCN)NC(=O)[C@H](Cc2c[nH]c3ccccc23)NC(=O)[C@H](CCN)NC(=O)[C@@H](CCN)NC(=O)[C@H](CCCN)NC(=O)[C@H](CCN)NC(=O)[C@H](Cc2c[nH]c3ccccc23)NC(=O)[C@H](Cc2c[nH]cn2)NC1=O` [compound 24, cyclo(-Leu-His-Trp-Dab-Orn-^DDab-Dab-Trp-Dab-tBuGly-Ala-Ser-^DPro-Pro-)] (cyclo(LHW[Dab][Orn][dDab][Dab]W[Dab][Tle]AS[dP]P)): the “Hemolysis at 100 μg/ml” value is reported as 1%.

In the case of `CC(C)C[C@@H]1NC(=O)[C@@H]2CCCN2C(=O)[C@H]2CCCN2C(=O)[C@H](CO)NC(=O)[C@H](C)NC(=O)[C@H](C(C)(C)C)NC(=O)[C@H](CCN)NC(=O)[C@H](Cc2c[nH]c3ccccc23)NC(=O)[C@H](CCN)NC(=O)[C@@H](CCN)NC(=O)[C@H](CCCCN)NC(=O)[C@H](CCN)NC(=O)[C@H](Cc2ccc(O)cc2)NC(=O)[C@H](Cc2c[nH]cn2)NC1=O` [compound 25, cyclo(-Leu-His-Tyr-Dab-Lys-^DDab-Dab-Trp-Dab-tBuGly-Ala-Ser-^DPro-Pro-)] (cyclo(LHY[Dab]K[dDab][Dab]W[Dab][Tle]AS[dP]P)), the “Hemolysis at 100 μg/ml” value came to 0%.

With `CC(C)C[C@@H]1NC(=O)[C@@H]2CCCN2C(=O)[C@H]2CCCN2C(=O)[C@H](CO)NC(=O)[C@H](C)NC(=O)[C@H](CC2CCCCC2)NC(=O)[C@H](CCN)NC(=O)[C@H](Cc2c[nH]c3ccccc23)NC(=O)[C@H](CCN)NC(=O)[C@@H](CCN)NC(=O)[C@H](CCCN)NC(=O)[C@H](CCN)NC(=O)[C@H](Cc2ccc(O)cc2)NC(=O)[C@H](Cc2c[nH]c3ccccc23)NC1=O` [compound 26, cyclo(-Leu-Trp-Tyr-Dab-Orn-^DDab-Dab-Trp-Dab-Cha-Ala-Ser-^DPro-Pro-)] (cyclo(LWY[Dab][Orn][dDab][Dab]W[Dab][Cha]AS[dP]P)), the “Hemolysis at 100 μg/ml” value was found to be 1%.

Take `CC(C)C[C@@H]1NC(=O)[C@@H]2CCCN2C(=O)[C@H]2CCCN2C(=O)[C@H](CO)NC(=O)[C@H](C)NC(=O)[C@H](C(C)(C)C)NC(=O)[C@H](CCN)NC(=O)[C@H](Cc2c[nH]c3ccccc23)NC(=O)[C@H](CCN)NC(=O)[C@@H](CCN)NC(=O)[C@H](CCCN)NC(=O)[C@H](CCN)NC(=O)[C@H](Cc2c[nH]c3ccccc23)NC(=O)[C@H](Cc2c[nH]c3ccccc23)NC1=O` [compound 27, cyclo(-Leu-Trp-Trp-Dab-Orn-^DDab-Dab-Trp-Dab-tBuGly-Ala-Ser-^DPro-Pro-)] (cyclo(LWW[Dab][Orn][dDab][Dab]W[Dab][Tle]AS[dP]P)): the “Hemolysis at 100 μg/ml” value is recorded as 0%.

Regarding `CC(C)C[C@@H]1NC(=O)[C@@H]2CCCN2C(=O)[C@H]2CCCN2C(=O)[C@H](CO)NC(=O)[C@H](C)NC(=O)[C@H](C(C)(C)C)NC(=O)[C@H](CCN)NC(=O)[C@H](Cc2c[nH]c3ccccc23)NC(=O)[C@H](CCN)NC(=O)[C@@H](CCN)NC(=O)[C@H](CCCN)NC(=O)[C@H](CCN)NC(=O)[C@H](Cc2ccc(O)cc2)NC(=O)[C@H](Cc2c[nH]c3ccccc23)NC1=O` [compound 28, cyclo(-Leu-Trp-Tyr-Dab-Orn-^DDab-Dab-Trp-Dab-tBuGly-Ala-Ser-^DPro-Pro-)] (cyclo(LWY[Dab][Orn][dDab][Dab]W[Dab][Tle]AS[dP]P)), the “Hemolysis at 100 μg/ml” value came to 1%.

With `CC(C)C[C@@H]1NC(=O)[C@@H]2CCCN2C(=O)[C@H]2CCCN2C(=O)[C@H](CO)NC(=O)[C@H](C)NC(=O)[C@H](Cc2c[nH]c3ccccc23)NC(=O)[C@H](CCN)NC(=O)[C@H](Cc2c[nH]c3ccccc23)NC(=O)[C@H](CCN)NC(=O)[C@@H](CCN)NC(=O)[C@H](CCCN)NC(=O)[C@H](CCN)NC(=O)[C@H](Cc2ccc(O)cc2)NC(=O)[C@H](Cc2c[nH]cn2)NC1=O` [compound 29, cyclo(-Leu-His-Tyr-Dab-Orn-^DDab-Dab-Trp-Dab-Trp-Ala-Ser-^DPro-Pro-)] (cyclo(LHY[Dab][Orn][dDab][Dab]W[Dab]WAS[dP]P)), the “Hemolysis at 100 μg/ml” value amounted to 0%.
